According to patent US12122756B2, “Biflavone compound against I-type herpes simplex virus, and preparation method therefor and use thereof” (priority 2022, dated 2024):
Marks after values point to notes of the source that are not given here.

What was measured:
HSV-I [1] = assay: Cytopathic effect (CPE) assay: inhibition of pathological changes of Vero cells induced by HSV-I (CCK-8); assay type: cell-based, Herpes simplex virus type I
Experimental: (1) Determination of the inhibitory activities of the test drugs on pathological changes of Vero cells induced by HSV-I using the cytopathic effect (CPE) assay: Vero cells were seeded in a 96-well plate and grew into a monolayer the next day. 100TCID50 HSV-I was added to infect cells, and then the cell maintenance solution containing different concentrations of the test drug was replaced, and a cell control group was included. The cells were cultured in an incubator for 72 hours. Then, the inhibitory effect of the drug on virus-induced cytopathic changes was measured using the CCK-8 assay, and thus the 50% inhibiting concentration (IC50) of the drug was calculated.

HSV-I [2] = assay: Action mode: inhibitory effect on HSV-I replication (CPE, CCK-8); assay type: cell-based, Herpes simplex virus type I
Experimental: (2) The inhibitory effect of drugs on HSV-I replication: Vero cells were seeded in a 96-well plate and grew into a monolayer, before adding HSV-I virus solution at 100 μl/well, followed by incubation for 1 hour. Then, the cell maintenance solution containing different concentrations of sample was replaced, and the cells were further cultured. After 72 hours, the effect on the replication of virus was determined using the CCK-8 method.

HSV-I viral keratitis = HSV-I viral keratitis model in mice, eye drops; assay type: in vivo
Excerpt: 8-week-old C57 mice (25 mice, weighing 22 g-25 g) were used to establish HSV-I viral keratitis models in their right eyes. During the modeling process, ster[…] needles were used to make #-shaped/*-shaped/parallel scratches on the cornea of all animals' right eyes. The depth of the scratches must be in the superficial layer, and could not penetrate the stroma. The depth of the scratches for each eye was moderately uniform, and the scratches were evenly distributed, and then a fiber syringe was used to drop 4 μl of HSV-I virus solution mixed well (titer: 2.0×10^6 PFU/ml), to finish modeling. After 1 day of modeling, the right eye of the animal was scored for HSV-I viral keratitis, and 20 mice with successful and uniform modeling were selected for inclusion in the experiment, which were randomly divided into two groups: a modeling group (Ctrl) and a di-XYW compound group, with 10 mice in one group. The surface of the right eye of the animal was treated with a corresponding solvent (Ctrl group, with physiological saline as the solvent) or a di-XYW compound at a concentration of 500 μg/ml (using physiological saline as the solvent), by administering every other day. On the day of administration, each eye should be administrated 5 times, 10 μl for each time, for 2 weeks. The pathological change of keratitis was scored before eye drops (Day 0) and on days 1, 3, 7, and 14 after eye drops (that was summarized as clinical scores, with scoring criteria shown in Table 7), followed by analysis and comparison. [table]

HSV-I [3] = assay: Plaque-reduction method: plaque formation in Vero cells induced by HSV-I; assay type: cell-based, Herpes simplex virus type I
Experimental: (2) Measurement of the inhibitory effect of drugs on the formation of plaque in Vero cells induced by HSV-I using plaque-reduction method: Vero cells were seeded into a 24-well plate and grew into a monolayer the next day. Then, the 100 PFU/0.2 ml virus solution was added to infect the cells, and a cell control group was included. After incubation with the virus, the agarose cover solution for maintenance of cells, containing different concentrations of the test drug, was replaced, followed by cultivation for additional 72 hours. The cell culture was fixed with 4% paraformaldehyde, stained with 1% crystal violet solution, washed, and dried. The plaque was counted to calculate plaque-forming inhibition ratio of the drug. [formula] 5. Study on the Action Mode of the Test Drug

[4] = Solubility (highest solubility used as starting concentration; water solubility)
Vero cells = assay: Cytotoxic assay of tested drugs against Vero cells (CCK-8); assay type: cell-based, African green monkey
Experimental: 3. Cytotoxic assay of tested drugs against Vero cells: Vero cells were seed in a 96 well plate at 3×10^4 cells/well. The next day, after growing into a monolayer, the test drug was diluted to obtain 8-9 concentrations and added to each well. Meanwhile, a normal control group was established, with 4 replicate wells for each group. After 72 hours, the toxicity of the test drug to Vero cells was measured using CCK-8 assay, and the highest non-toxic concentration and half toxic concentration (TC50) of the drug on the cells were calculated.

HSV-I [5] = assay: Action mode: direct inactivation effect on HSV-I (CPE, CCK-8); assay type: cell-based, Herpes simplex virus type I
Experimental: (3) The direct inactivation effect of drugs on HSV-I: Vero cells were seeded in a 96-well plate and grew into a monolayer. Different concentrations of samples were respectively mixed with the virus solution, followed by placing at 37° C. for 1 hour. Then, the solution was added the cells, and incubated for 1 hour. Then, the cell maintenance solution was replaced, and the cells were further cultured. After 72 hours, the direct inactivation effects of drugs on HSV-I was determined using the CCK-8 method. Moreover, a virus control group was set up.

## COc1c(O)c(Cc2c(O)c(OC)c(O)c3c(=O)c(-c4ccc(O)c(S(=O)(=O)[O-])c4)coc23)c2occ(-c3ccc(O)c(S(=O)(=O)[O-])c3)c(=O)c2c1O.[Na+].[Na+] [Compound 2, 8,8″-methylene-di-(sodiumtectorigenin-5′-sulphonate)]
HSV-I [1]; 5.97 μg/ml, n = 6
  Average optical density (OD): 0.33 ± 0.04
HSV-I [1]; 11.94 μg/ml, n = 6
  Average optical density (OD): 0.35 ± 0.05
HSV-I [1]; 23.88 μg/ml, n = 6
  Average optical density (OD): 0.44 ± 0.07
HSV-I [1]; 47.75 μg/ml, n = 6
  Average optical density (OD): 0.65 ± 0.06
HSV-I [1]; 95.50 μg/ml, n = 6
  Average optical density (OD): 0.95 ± 0.04
HSV-I [1]; 191.00 μg/ml, n = 6
  Average optical density (OD): 1.06 ± 0.05
HSV-I [1]; 382.00 μg/ml, n = 6
  Average optical density (OD): 1.10 ± 0.03
HSV-I [1]; CPE method
  inhibitory effect on HSV-I induced cytopathic changes (in words): significant inhibitory effect
HSV-I [1]; Human alphaherpesvirus 1, Vero, 5.97 μg/ml, n = 6, read-out: Inhibition rate (%)
  inhibition at 5.97 µg/mL: -0.36%
HSV-I [1]; Human alphaherpesvirus 1, Vero, 11.94 μg/ml, n = 6, read-out: Inhibition rate (%)
  inhibition at 11.94 µg/mL: 2.87%
HSV-I [1]; Human alphaherpesvirus 1, Vero, 23.88 μg/ml, n = 6, read-out: Inhibition rate (%)
  inhibition at 23.88 µg/mL: 14.5%
HSV-I [1]; Human alphaherpesvirus 1, Vero, 47.75 μg/ml, n = 6, read-out: Inhibition rate (%)
  inhibition at 47.75 µg/mL: 40.7%
HSV-I [1]; Human alphaherpesvirus 1, Vero, 95.50 μg/ml, n = 6, read-out: Inhibition rate (%)
  inhibition at 95.5 µg/mL: 79.9%
HSV-I [1]; Human alphaherpesvirus 1, Vero, 191.00 μg/ml, n = 6, read-out: Inhibition rate (%)
  inhibition at 191 µg/mL: 94%
HSV-I [1]; Human alphaherpesvirus 1, Vero, 382.00 μg/ml, n = 6, read-out: Inhibition rate (%)
  inhibition at 382 µg/mL: 99.2%
HSV-I [1]; Human alphaherpesvirus 1, against HSV-I in Vero cells, Probit regression
  IC50: 54.5 mg/L
HSV-I [1]; TC50 on Vero cells / IC50 against HSV-I
  SI (selection index = TC50/IC50): 32.117
HSV-I [2]; 5.97 μg/ml, n = 6
  Effect on viral replication: OD value: 0.33 ± 0.05
HSV-I [2]; 11.94 μg/ml, n = 6
  Effect on viral replication: OD value: 0.36 ± 0.07
HSV-I [2]; 23.88 μg/ml, n = 6
  Effect on viral replication: OD value: 0.62 ± 0.05
HSV-I [2]; 47.45 μg/ml, n = 6
  Effect on viral replication: OD value: 0.80 ± 0.05
HSV-I [2]; 95.50 μg/ml, n = 6
  Effect on viral replication: OD value: 0.97 ± 0.09
HSV-I [2]; 191.00 μg/ml, n = 6
  Effect on viral replication: OD value: 0.98 ± 0.12
HSV-I [2]; 382.00 μg/ml, n = 6
  Effect on viral replication: OD value: 0.99 ± 0.02
HSV-I [2]; CPE method
  effect on viral replication (in words): significant effect
HSV-I [2]; Human alphaherpesvirus 1, 5.97 μg/ml, n = 6, read-out: Effect on viral replication: Inhibition rate (%)
  inhibition at 5.97 µg/mL: 13.1%
HSV-I [2]; Human alphaherpesvirus 1, 11.94 μg/ml, n = 6, read-out: Effect on viral replication: Inhibition rate (%)
  inhibition at 11.94 µg/mL: 17.6%
HSV-I [2]; Human alphaherpesvirus 1, 23.88 μg/ml, n = 6, read-out: Effect on viral replication: Inhibition rate (%)
  inhibition at 23.88 µg/mL: 50.5%
HSV-I [2]; Human alphaherpesvirus 1, 47.45 μg/ml, n = 6, read-out: Effect on viral replication: Inhibition rate (%)
  inhibition at 47.45 µg/mL: 73.8%
HSV-I [2]; Human alphaherpesvirus 1, 95.50 μg/ml, n = 6, read-out: Effect on viral replication: Inhibition rate (%)
  inhibition at 95.5 µg/mL: 96.2%
HSV-I [2]; Human alphaherpesvirus 1, 191.00 μg/ml, n = 6, read-out: Effect on viral replication: Inhibition rate (%)
  inhibition at 191 µg/mL: 98%
HSV-I [2]; Human alphaherpesvirus 1, 382.00 μg/ml, n = 6, read-out: Effect on viral replication: Inhibition rate (%)
  inhibition at 382 µg/mL: 98.8%
HSV-I viral keratitis; C57 mice, after 1 and 2 weeks of eye drops at 500 μg/ml, *P<0.05
  keratitis pathological changes and clinical score changes compared to model control group (Ctrl): statistically significant differences
HSV-I viral keratitis; C57 mice, eye drops 500 μg/ml, every other day, 5 x 10 μl per day, 2 weeks
  therapeutic effect on HSV-I viral keratitis (in words): good therapeutic effect
HSV-I viral keratitis; mice, eye drops
  inhibition of pathological changes of HSV-I viral keratitis (in words): effectively inhibit
HSV-I [3]
  inhibitory effect on plaque formation induced by HSV-I (in words): significant inhibitory effect
[4]
  solubility: 1.6 mg/mL
Vero cells; 1st (highest) concentration (971, 1600, 2620, 390 μg·ml^−1 for Compounds 1-4), 72 h
  growth inhibition rate (%) on Vero cells: 41.92** %
Vero cells; 2nd concentration, 50% serial dilution from column-head concentration, 72 h
  growth inhibition rate (%) on Vero cells: 29.02** %
Vero cells; 3rd concentration, 50% serial dilution from column-head concentration, 72 h
  growth inhibition rate (%) on Vero cells: 11.69** %
Vero cells; 4th concentration, 50% serial dilution from column-head concentration, 72 h
  growth inhibition rate (%) on Vero cells: −4.55%
Vero cells; 5th concentration, 50% serial dilution from column-head concentration, 72 h
  growth inhibition rate (%) on Vero cells: 5.46%
Vero cells; 6th concentration, 50% serial dilution from column-head concentration, 72 h
  growth inhibition rate (%) on Vero cells: −4.74%
Vero cells; 7th concentration, 50% serial dilution from column-head concentration, 72 h
  growth inhibition rate (%) on Vero cells: −12.11%
Vero cells; 8th concentration, 50% serial dilution from column-head concentration, 72 h
  growth inhibition rate (%) on Vero cells: −8.20%
Vero cells; 9th concentration, 50% serial dilution from column-head concentration, 72 h
  growth inhibition rate (%) on Vero cells: −13.88%
Vero cells; 72 h, CCK-8, Probit regression
  TC50 on Vero cells: 1749.982 mg/L
Vero cells; Vero cells
  toxicity (in words): lower toxicity
Vero cells; Vero cells (Table 5)
  TC50: 1749.982 mg/L
Vero cells; Vero cells, 72 h, CCK-8
  highest non-toxic concentration: 382.804 µg/mL
HSV-I [5]; 5.97 μg/ml, n = 6
  Direct inactivation: OD value: 0.33 ± 0.04
HSV-I [5]; 11.94 μg/ml, n = 6
  Direct inactivation: OD value: 0.39 ± 0.05
HSV-I [5]; 23.88 μg/ml, n = 6
  Direct inactivation: OD value: 0.48 ± 0.06
HSV-I [5]; 47.45 μg/ml, n = 6
  Direct inactivation: OD value: 0.55 ± 0.08
HSV-I [5]; 95.50 μg/ml, n = 6
  Direct inactivation: OD value: 0.65 ± 0.08
HSV-I [5]; 191.00 μg/ml, n = 6
  Direct inactivation: OD value: 0.90 ± 0.09
HSV-I [5]; 382.00 μg/ml, n = 6
  Direct inactivation: OD value: 1.08 ± 0.06
HSV-I [5]; CPE method
  direct inactivation of the virus (in words): significant effect
HSV-I [5]; Human alphaherpesvirus 1, 5.97 μg/ml, n = 6, read-out: Direct inactivation: Inhibition rate (%)
  inhibition at 5.97 µg/mL: 3.91%
HSV-I [5]; Human alphaherpesvirus 1, 11.94 μg/ml, n = 6, read-out: Direct inactivation: Inhibition rate (%)
  inhibition at 11.94 µg/mL: 10.8%
HSV-I [5]; Human alphaherpesvirus 1, 23.88 μg/ml, n = 6, read-out: Direct inactivation: Inhibition rate (%)
  inhibition at 23.88 µg/mL: 22.4%
HSV-I [5]; Human alphaherpesvirus 1, 47.45 μg/ml, n = 6, read-out: Direct inactivation: Inhibition rate (%)
  inhibition at 47.45 µg/mL: 31.2%
HSV-I [5]; Human alphaherpesvirus 1, 95.50 μg/ml, n = 6, read-out: Direct inactivation: Inhibition rate (%)
  inhibition at 95.5 µg/mL: 44.2%
HSV-I [5]; Human alphaherpesvirus 1, 191.00 μg/ml, n = 6, read-out: Direct inactivation: Inhibition rate (%)
  inhibition at 191 µg/mL: 76%
HSV-I [5]; Human alphaherpesvirus 1, 382.00 μg/ml, n = 6, read-out: Direct inactivation: Inhibition rate (%)
  inhibition at 382 µg/mL: 98.7%
